ChEMBL document CHEMBL1138109, “Semicarbazone-based inhibitors of cathepsin K, are they prodrugs for aldehyde inhibitors?” (Bioorg Med Chem Lett, 2006)
Converted amounts (≈) assume the structure as drawn.

Tests used:
Cathepsin K [1] = biological target: T1, Cathepsin K (Homo sapiens, UniProt P43235); test: Inhibition of recombinant human cathepsin K in a fluorescence assay
T1 sequence (P43235 whole entry): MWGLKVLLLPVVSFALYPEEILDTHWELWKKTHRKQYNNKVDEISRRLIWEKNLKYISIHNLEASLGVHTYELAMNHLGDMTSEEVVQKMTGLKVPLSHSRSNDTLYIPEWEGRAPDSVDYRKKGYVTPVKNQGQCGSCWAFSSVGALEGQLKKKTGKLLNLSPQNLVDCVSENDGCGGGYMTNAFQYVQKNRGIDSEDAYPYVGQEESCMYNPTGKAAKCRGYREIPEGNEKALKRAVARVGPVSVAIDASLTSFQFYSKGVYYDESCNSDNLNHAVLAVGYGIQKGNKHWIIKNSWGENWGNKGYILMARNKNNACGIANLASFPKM

Pro-cathepsin H = biological target: T2, Pro-cathepsin H (Homo sapiens, UniProt P09668); test: Inhibition of recombinant human cathepsin H in a fluorescence assay
T2 sequence (P09668 whole entry): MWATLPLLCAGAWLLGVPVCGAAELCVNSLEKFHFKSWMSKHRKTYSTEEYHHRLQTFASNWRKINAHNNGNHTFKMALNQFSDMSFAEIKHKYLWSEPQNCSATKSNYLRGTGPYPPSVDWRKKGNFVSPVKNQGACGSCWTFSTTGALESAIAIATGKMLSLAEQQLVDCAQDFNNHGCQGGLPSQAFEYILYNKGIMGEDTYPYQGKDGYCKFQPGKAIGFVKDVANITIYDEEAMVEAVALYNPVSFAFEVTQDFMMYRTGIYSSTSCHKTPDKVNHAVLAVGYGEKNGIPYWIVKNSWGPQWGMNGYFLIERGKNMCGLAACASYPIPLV

Procathepsin L = Procathepsin L (Homo sapiens, UniProt P07711); test: Inhibition of recombinant human cathepsin L in a fluorescence assay
Chain of Procathepsin L (P07711 whole entry): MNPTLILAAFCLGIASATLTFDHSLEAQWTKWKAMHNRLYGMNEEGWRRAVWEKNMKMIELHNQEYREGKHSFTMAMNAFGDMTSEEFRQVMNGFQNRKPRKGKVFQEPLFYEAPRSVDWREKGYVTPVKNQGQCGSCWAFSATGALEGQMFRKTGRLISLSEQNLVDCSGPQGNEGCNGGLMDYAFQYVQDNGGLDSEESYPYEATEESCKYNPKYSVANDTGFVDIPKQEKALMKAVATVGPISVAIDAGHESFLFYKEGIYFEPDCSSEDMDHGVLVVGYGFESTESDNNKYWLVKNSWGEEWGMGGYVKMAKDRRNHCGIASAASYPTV

Cathepsin B = Cathepsin B (Homo sapiens, UniProt P07858); test: Inhibition of recombinant human cathepsin B in a fluorescence assay
[2] = (§1) Volume of distribution in Han Wistar rat; format: ADME, organism-based; conditions: Han Wistar, in vivo
[3] = Clearance in Han Wistar rat; format: ADME, organism-based; conditions: in vivo
[4] = Oral bioavailability in male Han Wistar rat; format: ADME, organism-based; conditions: in vivo
[5] = Permeability across MDCK cells; format: ADME, cell-based, Canis lupus familiaris; conditions: dog
[6] = Solubility in fasted state-simulated intestinal fluid at pH 6.8; format: physicochemical
[7] = (§2) Terminal half life in iv dosed Han Wistar rat; format: ADME, organism-based; conditions: Han Wistar, in vivo, read-out: beta t1/2
Rattus norvegicus [8] = species: Rattus norvegicus; test: as §1; format: ADME, organism-based; conditions: in vivo
Rattus norvegicus [9] = test: as §2; format: ADME, organism-based; conditions: in vivo
Cathepsin K [10] = biological target: T3, Cathepsin K (Rattus norvegicus, UniProt O35186); test: Inhibition of rat cathepsin K
T3 sequence (O35186 whole entry): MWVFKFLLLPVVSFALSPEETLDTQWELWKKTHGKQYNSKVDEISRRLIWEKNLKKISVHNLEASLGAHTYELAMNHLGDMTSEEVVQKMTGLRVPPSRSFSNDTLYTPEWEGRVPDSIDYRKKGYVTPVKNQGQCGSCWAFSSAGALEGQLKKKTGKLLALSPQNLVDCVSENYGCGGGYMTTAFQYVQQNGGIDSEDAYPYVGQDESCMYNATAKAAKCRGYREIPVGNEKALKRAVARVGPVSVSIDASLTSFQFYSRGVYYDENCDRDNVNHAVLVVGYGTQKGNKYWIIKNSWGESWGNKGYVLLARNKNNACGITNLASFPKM

CCCC[C@@H](/C=N/NC(=O)NCC)NC(=O)OC(C)(C)C
IC50 (Cathepsin K [1]): 490 nM

CCCC[C@@H](/C=N/NC(=O)NCCc1ccccc1)NC(=O)OC(C)(C)C
IC50 (Cathepsin K [1]): 260 nM

CCCC[C@@H](C=O)NC(=O)O[C@H](Cc1ccccc1)C(C)C
IC50 (Pro-cathepsin H): 18 nM
IC50 (Procathepsin L): 12 nM
IC50 (Cathepsin B): 27 nM

CCCC[C@@H](/C=N/NC(=O)N1CCOCC1)NC(=O)OC(C)(C)C
Vd [2]: 0.57 L/kg
IC50 (Cathepsin K [1]): 35 nM
clearance [3]: 43 mL/min/kg
bioavailability [4]: 3.9%
IC50 (Pro-cathepsin H): > 13000 nM
IC50 (Procathepsin L): 11000 nM
Papp [5]: 6.2 ×10⁻⁶ cm/s
IC50 (Cathepsin B): 32000 nM
solubility [6]: 120 µg/mL (≈ 350 µM)
half-life [7]: 22 min

CCCC[C@@H](/C=N/NC(=O)Nc1ccccc1)NC(=O)OC(C)(C)C
IC50 (Cathepsin K [1]): 400 nM

CCCC[C@@H](/C=N/NC(=O)N(C)CCc1ccccc1)NC(=O)OC(C)(C)C
IC50 (Cathepsin K [1]): 45 nM

CCCC[C@@H](/C=N/NC(=O)CC(C)C)NC(=O)OC(C)(C)C
IC50 (Cathepsin K [1]): 200 nM

CCCC[C@@H](/C=N/NC(=O)N1CCCCC1)NC(=O)OC(C)(C)C
IC50 (Cathepsin K [1]): 58 nM

CCCC[C@@H](/C=N/NC(=O)SC(C)C)NC(=O)OC(C)(C)C
IC50 (Cathepsin K [1]): 830 nM

CCCC[C@@H](/C=N/N[N+]1=CSCC1)NC(=O)OC(C)(C)C
IC50 (Cathepsin K [1]): 470 nM

CCCC[C@@H](/C=N/NC(=O)N1CCc2ccccc2C1)NC(=O)OC(C)(C)C
IC50 (Cathepsin K [1]): 93 nM

CCCC[C@@H](/C=N/N(C)C(=O)NCCc1ccccc1)NC(=O)OC(C)(C)C
IC50 (Cathepsin K [1]): 11000 nM

CCCC[C@@H](/C=N/NC(=O)NCc1ccccc1)NC(=O)OC(C)(C)C
IC50 (Cathepsin K [1]): 410 nM

CCCC[C@@H](/C=N/NC(=O)N(CC)CC)NC(=O)OC(C)(C)C
IC50 (Cathepsin K [1]): 40 nM

CCCC[C@@H](/C=N/NC(=O)NCC(=O)OCC)NC(=O)OC(C)(C)C
IC50 (Cathepsin K [1]): 520 nM

CCCC[C@@H](/C=N/NC(N)=O)NC(=O)OC(C)(C)C
IC50 (Cathepsin K [1]): 350 nM

CCCC[C@@H](/C=N/N(C)C(=O)N(C)CCc1ccccc1)NC(=O)OC(C)(C)C
IC50 (Cathepsin K [1]): 520 nM

CC(C)C[C@@H]([13CH]=O)NC(=O)OC(C)(C)C
IC50 (Cathepsin K [1]): 31 nM

CC(C)C[C@@H](/[13CH]=N/NC(=O)N1CCOCC1)NC(=O)OC(C)(C)C
IC50 (Cathepsin K [1]): 110 nM

CCCC[C@@H](/C=N/OC(=O)N1CCOCC1)NC(=O)OC(C)(C)C
IC50 (Cathepsin K [1]): 1100 nM

CCCC[C@@H](/C=N/N=C(\S)NC(C)C)NC(=O)OC(C)(C)C
IC50 (Cathepsin K [1]): 170 nM

CCCC[C@@H](/C=N/NC(=O)N1CCc2ccccc21)NC(=O)OC(C)(C)C
Vdss (Rattus norvegicus [8]): 0.54 L/kg
IC50 (Cathepsin K [1]): 48 nM
bioavailability [4]: 0%
IC50 (Pro-cathepsin H): > 13000 nM
IC50 (Procathepsin L): 14000 nM
Papp [5]: 15 ×10⁻⁶ cm/s
IC50 (Cathepsin B): 35000 nM
solubility [6]: 33 µg/mL (≈ 88.1 µM)
beta t1/2 (Rattus norvegicus [9]): 10 min

CCCC[C@@H](/C=N/NC(=O)N1CCOCC1)NC(=O)O[C@@H](C)Cc1ccccc1
Vdss (Rattus norvegicus [8]): 0.22 L/kg
IC50 (Cathepsin K [1]): 0.94 nM
bioavailability [4]: 0%
IC50 (Pro-cathepsin H): 230 nM
IC50 (Procathepsin L): 540 nM
Papp [5]: 14 ×10⁻⁶ cm/s
IC50 (Cathepsin K [10]): 130 nM
IC50 (Cathepsin B): 270 nM
solubility [6]: 60 µg/mL (≈ 148 µM)
beta t1/2 (Rattus norvegicus [9]): 9 min

CCCC[C@@H](/C=N/NC(=O)C(F)(F)F)NC(=O)OC(C)(C)C
IC50 (Cathepsin K [1]): 24 nM

CCCC[C@@H](C=O)NC(=O)OC(C)(C)C
IC50 (Pro-cathepsin H): > 13000 nM
IC50 (Procathepsin L): 8900 nM
IC50 (Cathepsin B): 32000 nM

CCCC[C@@H](/C=N/NC(=O)N(C)C)NC(=O)OC(C)(C)C
IC50 (Cathepsin K [1]): 72 nM

CCCC[C@@H](/C=N/NS(=O)(=O)N(C)C)NC(=O)OC(C)(C)C
Vd [2]: 0.39 L/kg
IC50 (Cathepsin K [1]): 72 nM
clearance [3]: 25 mL/min/kg
bioavailability [4]: 26%
Papp [5]: 77 ×10⁻⁶ cm/s
solubility [6]: 380 µg/mL (≈ 1130 µM)
half-life [7]: 39 min

CCCC[C@@H](/C=N/NC(=O)NC(C)C)NC(=O)OC(C)(C)C
IC50 (Cathepsin K [1]): 170 nM

CCCC[C@@H](C=O)NC(=O)OC1(Cc2ccccc2)CCCC1
IC50 (Pro-cathepsin H): > 13000 nM

CCCC[C@@H](/C=N/N=C(N)N)NC(=O)OC(C)(C)C
IC50 (Cathepsin K [1]): 33000 nM

CCCC[C@@H](/C=N/NC(=O)N1CCOCC1)NC(=O)O[C@H](Cc1ccccc1)C(C)C
IC50 (Cathepsin K [1]): 0.33 nM
IC50 (Pro-cathepsin H): 190 nM
IC50 (Procathepsin L): 12 nM
IC50 (Cathepsin B): 18 nM

CCCC[C@@H](C=O)NC(=O)O[C@@H](C)Cc1ccccc1
IC50 (Pro-cathepsin H): 40 nM

CCCC[C@@H](/C=N/NC(=O)NC(C)(C)C)NC(=O)OC(C)(C)C
IC50 (Cathepsin K [1]): 160 nM

CCCC[C@@H](/C=N/NC(=O)N1CCCC1)NC(=O)OC(C)(C)C
Vdss (Rattus norvegicus [8]): 0.43 L/kg
IC50 (Cathepsin K [1]): 36 nM
bioavailability [4]: 0%
Papp [5]: 20 ×10⁻⁶ cm/s
solubility [6]: 71 µg/mL (≈ 217 µM)
beta t1/2 (Rattus norvegicus [9]): 18 min

CCCC[C@@H](/C=N/NC(=O)N1CCc2ccccc21)NC(=O)OC1(Cc2ccccc2)CCCC1
IC50 (Cathepsin K [1]): 1.1 nM
IC50 (Pro-cathepsin H): > 13000 nM
IC50 (Procathepsin L): 3400 nM
IC50 (Cathepsin B): 1800 nM

CCCC[C@@H](/C=N/NC(=O)OC(C)C)NC(=O)OC(C)(C)C
IC50 (Cathepsin K [1]): 130 nM

CCCC[C@@H](/C=N/NC(=O)N1CCCc2ccccc21)NC(=O)OC(C)(C)C
IC50 (Cathepsin K [1]): 59 nM

CCCC[C@@H](/C=N/NC(=O)NC)NC(=O)OC(C)(C)C
IC50 (Cathepsin K [1]): 280 nM

CCCC[C@@H](/C=N/NC(=O)NCCC(=O)OCC)NC(=O)OC(C)(C)C
IC50 (Cathepsin K [1]): 470 nM

CCCC[C@@H](/C=N/NC(=O)NC(=O)OC)NC(=O)OC(C)(C)C
IC50 (Cathepsin K [1]): 180 nM

CCCC[C@@H](/C=N/NC(=O)c1ccccc1)NC(=O)OC(C)(C)C
IC50 (Cathepsin K [1]): 220 nM
